Data from US10457677B2 (priority 2015, dated 2019).

Each molecule was assayed on phosphorylation of CHK2 (phospho-Thr68) in HCT116 cells (assay: Cellular pCHK2 assay: bleomycin-induced phosphorylation of CHK2 (phospho-Thr68), immunofluorescence high-content analysis). Conditions: HCT116 cells, 10 μM bleomycin, 4 h; read-out: IC50 (pCHK2).
Assay type: cell-based, human
Text: For the identification of substances which inhibit the phosphorylation of the protein kinase CHK2 at the amino acid threonine 68, an immunofluorescence-based “high content” analysis assay was used in HCT116 cells.
In vitro cell-based immunofluorescence assay for the identification of inhibitors of bleomycin-induced phosphorylation of CHK2 (phospho-Thr68) in the human colon carcinoma cell line HCT116:
HCT116 cells are sown out in a defined cell density in 384-well plates in culture medium (DMEM high glucose, 2 mM GlutaMax, 1 mM Na pyruvate, 10% FCS) and incubated overnight at 37° C. and 10% of CO2. On the following day, the test substances are added in a defined concentration range (1 nM to 30 μM) in combination with 10 μM bleomycin, where the concentration of the solvent DMSO is kept constant at 0.5%. […] Parallel staining of DNA with propidium iodide enables determination of the cell count. The pCHK2 signal is detected using a high-content imager (Molecular Devices IMX Ultra) and automatic image analysis using the MetaXpress software belonging to the instrument. The number of cell nuclei which have a pCHK2 signal above a defined background is determined.

Molecule | IC50
1-(3-Fluoro-5-methylpyridin- 4-yl)-7-methoxy-3-methyl-8- (2-methyl-2H-1,2,3-triazol- 4-yl)-1,3-dihydroimidazo- [4,5-c] quinolin-2-one [compound 103] | 200 to 1000 nM
CCn1cc(-c2cc3c(cc2OC)ncc2c3n(-c3c(F)cncc3OC)c(=O)n2C)cn1 [Example 13] | < 200 nM

Each molecule was assayed against purified human recombinant ATM (ataxia telangiectasia mutated), full length (Homo sapiens (Human), UniProt Q13315) (assay: ATM kinase assay - determination of ATM inhibition (IC50 ATM), TR-FRET). Conditions: 10 μM ATP, substrate p53.
Assay type: biochemical
Protocol: ATM kinase assay—determination of ATM inhibition (IC50 ATM):
The IC50 value was determined with the aid of a biochemical ATM kinase assay. The assay consists of two steps: the enzymatic reaction and the detection step. Firstly, ATM (ataxia telangiectasia mutated) protein and the test substance are incubated at different concentrations with addition of substrate protein p53 and ATP. ATM mediates the phosphorylation of p53 at several positions, including at amino acid S15. The amount of phosphorylated p53 is determined with the aid of specific antibodies and the TR-FRET technique. The enzymatic ATM assay is carried out as TR-FRET (HTRF™, Cisbio Bioassays) based 384-well assay. In the first step, purified human recombinant ATM (human ATM, full length, GenBank ID NM_000051, expressed in a mammal cell line) is incubated in assay buffer for 15 minutes with the ATM inhibitor in various concentrations and without test substance as negative or neutral control. The assay buffer comprises 25 mM HEPES pH 8.0, 10 mM Mg(CH3COO)2, 1 mM MnCl2, 0,1% BSA and 0,01% Brij® 35, 5 mM dithiothreitol (DTT). […] In the second step, purified human recombinant cmyc-labelled p53 (human p53, full length, GenBank ID BC003596, expressed in Sf21 insect cells) and ATP are added, and the reaction mixture is incubated at 22° C. for 30-35 minutes. The pharmacologically relevant assay volume is 5 μl. […] The enzymatic reaction is stopped by addition of EDTA. […] After incubation, usually for 2 hours (between 1.5 and 15h), for signal development, the plates are analysed in a plate reader (EnVision, PerkinElmer) using TRF mode (and with laser excitation). […] The measurement data were processed by means of Genedata Screener software.

Chain of purified human recombinant ATM (ataxia telangiectasia mutated), full length (Q13315 whole entry, change not shown): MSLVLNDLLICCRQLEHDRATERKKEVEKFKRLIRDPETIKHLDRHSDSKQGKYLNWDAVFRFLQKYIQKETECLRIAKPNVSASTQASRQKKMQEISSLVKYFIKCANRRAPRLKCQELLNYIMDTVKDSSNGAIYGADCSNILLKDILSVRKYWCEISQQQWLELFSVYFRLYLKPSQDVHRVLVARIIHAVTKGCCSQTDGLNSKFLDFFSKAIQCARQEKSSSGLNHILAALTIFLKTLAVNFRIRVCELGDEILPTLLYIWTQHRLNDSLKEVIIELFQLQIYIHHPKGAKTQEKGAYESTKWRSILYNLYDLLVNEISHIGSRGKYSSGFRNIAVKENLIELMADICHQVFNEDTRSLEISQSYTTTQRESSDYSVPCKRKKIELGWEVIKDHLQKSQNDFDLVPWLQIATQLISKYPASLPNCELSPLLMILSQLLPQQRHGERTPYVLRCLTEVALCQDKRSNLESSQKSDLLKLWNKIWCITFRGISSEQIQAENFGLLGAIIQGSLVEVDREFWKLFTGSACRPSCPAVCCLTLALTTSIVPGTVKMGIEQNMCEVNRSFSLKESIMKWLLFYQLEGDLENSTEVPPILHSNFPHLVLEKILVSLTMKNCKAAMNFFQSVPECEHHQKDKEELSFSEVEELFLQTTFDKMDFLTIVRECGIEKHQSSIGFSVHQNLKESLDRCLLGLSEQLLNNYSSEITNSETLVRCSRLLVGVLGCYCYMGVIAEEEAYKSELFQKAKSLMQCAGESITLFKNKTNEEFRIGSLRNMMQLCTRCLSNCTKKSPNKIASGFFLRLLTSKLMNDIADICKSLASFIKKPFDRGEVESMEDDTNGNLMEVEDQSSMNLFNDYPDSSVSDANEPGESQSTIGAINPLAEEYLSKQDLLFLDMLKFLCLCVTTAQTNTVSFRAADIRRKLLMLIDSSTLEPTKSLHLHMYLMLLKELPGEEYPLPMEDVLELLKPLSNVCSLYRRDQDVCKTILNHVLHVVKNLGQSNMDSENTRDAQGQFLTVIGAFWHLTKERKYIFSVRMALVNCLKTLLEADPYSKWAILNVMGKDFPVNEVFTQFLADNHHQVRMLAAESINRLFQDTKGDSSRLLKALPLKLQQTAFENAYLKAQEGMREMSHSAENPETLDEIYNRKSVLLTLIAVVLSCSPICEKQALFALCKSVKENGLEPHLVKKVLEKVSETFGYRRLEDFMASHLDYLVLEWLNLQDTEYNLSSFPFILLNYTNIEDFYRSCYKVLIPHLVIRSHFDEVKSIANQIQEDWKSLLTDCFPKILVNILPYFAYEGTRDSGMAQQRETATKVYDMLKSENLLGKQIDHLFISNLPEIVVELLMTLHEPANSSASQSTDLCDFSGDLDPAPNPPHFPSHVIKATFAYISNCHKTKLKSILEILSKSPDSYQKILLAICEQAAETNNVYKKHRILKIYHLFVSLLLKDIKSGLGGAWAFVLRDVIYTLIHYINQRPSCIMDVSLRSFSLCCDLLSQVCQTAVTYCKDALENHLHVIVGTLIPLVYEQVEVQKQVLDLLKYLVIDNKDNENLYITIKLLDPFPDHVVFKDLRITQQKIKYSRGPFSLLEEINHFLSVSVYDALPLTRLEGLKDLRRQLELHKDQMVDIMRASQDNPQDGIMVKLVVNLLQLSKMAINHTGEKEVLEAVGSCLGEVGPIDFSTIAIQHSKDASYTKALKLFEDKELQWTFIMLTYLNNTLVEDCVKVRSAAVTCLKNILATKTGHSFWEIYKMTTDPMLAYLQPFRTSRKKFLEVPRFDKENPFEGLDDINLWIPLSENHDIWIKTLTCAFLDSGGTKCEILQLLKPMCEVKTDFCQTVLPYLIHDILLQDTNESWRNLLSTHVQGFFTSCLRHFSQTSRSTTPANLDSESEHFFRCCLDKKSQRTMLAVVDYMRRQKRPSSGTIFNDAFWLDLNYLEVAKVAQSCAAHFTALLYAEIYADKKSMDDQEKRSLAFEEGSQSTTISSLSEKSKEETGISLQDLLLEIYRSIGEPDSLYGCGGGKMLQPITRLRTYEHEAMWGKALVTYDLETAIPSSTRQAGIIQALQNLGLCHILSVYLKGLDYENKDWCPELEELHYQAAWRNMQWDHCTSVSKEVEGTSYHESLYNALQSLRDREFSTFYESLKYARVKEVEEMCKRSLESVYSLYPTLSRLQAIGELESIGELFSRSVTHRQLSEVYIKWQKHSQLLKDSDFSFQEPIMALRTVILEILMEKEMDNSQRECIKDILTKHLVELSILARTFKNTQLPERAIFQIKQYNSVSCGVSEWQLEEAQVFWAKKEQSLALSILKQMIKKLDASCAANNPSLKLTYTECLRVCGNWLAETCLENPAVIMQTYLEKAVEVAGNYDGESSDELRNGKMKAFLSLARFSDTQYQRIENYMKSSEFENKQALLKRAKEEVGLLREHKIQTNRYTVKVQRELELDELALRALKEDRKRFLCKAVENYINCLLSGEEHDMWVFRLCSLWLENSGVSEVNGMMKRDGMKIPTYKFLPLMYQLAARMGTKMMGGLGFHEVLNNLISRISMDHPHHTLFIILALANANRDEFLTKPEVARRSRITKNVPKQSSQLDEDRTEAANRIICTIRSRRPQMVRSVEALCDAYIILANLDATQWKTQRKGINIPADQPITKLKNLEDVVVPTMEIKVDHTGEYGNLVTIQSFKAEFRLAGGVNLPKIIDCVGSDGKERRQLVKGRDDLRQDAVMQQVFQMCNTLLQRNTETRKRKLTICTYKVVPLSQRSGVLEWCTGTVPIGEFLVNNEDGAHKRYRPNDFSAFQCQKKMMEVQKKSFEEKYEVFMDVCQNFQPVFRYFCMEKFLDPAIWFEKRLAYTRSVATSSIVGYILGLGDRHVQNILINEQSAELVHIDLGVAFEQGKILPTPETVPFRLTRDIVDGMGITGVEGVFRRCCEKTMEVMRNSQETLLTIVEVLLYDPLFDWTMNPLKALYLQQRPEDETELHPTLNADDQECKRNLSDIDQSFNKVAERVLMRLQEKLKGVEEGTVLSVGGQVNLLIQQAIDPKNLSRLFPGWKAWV

Molecule | IC50
1-(3-Fluoro-5-methylpyridin- 4-yl)-7-methoxy-3-methyl-8- (2-methyl-2H-1,2,3-triazol- 4-yl)-1,3-dihydroimidazo- [4,5-c] quinolin-2-one [compound 103] | < 50 nM
COc1cc2ncc3c(c2cc1-c1ccc2nc(C)[nH]c2c1)n(-c1cn(C)nc1C)c(=O)n3C [compound 132, 1-(1,3-Dimethyl-1H-pyrazol-4-yl)-7-methoxy-3-methyl-8-(2-methyl-3H-benzo-imidazol-5-yl)-1,3-dihydro-imidazo[4,5-c]quinolin-2-one] | < 1 nM
COc1cnc(-n2c(=O)n(C)c3cnc4cc(OC)c(-c5cn(C)nn5)cc4c32)c(F)c1 [compound 133, 1-(3-Fluoro-5-methoxy-pyridin-2-yl)-7-methoxy-3-methyl-8-(1-methyl-1H-1,2,3-triazol-4-yl)-1,3-dihydroimidazo[4,5-c] quinolin-2-one] | < 10 nM
COc1cc2ncc3c(c2cc1-c1cnn[nH]1)n(-c1c(F)cncc1OC)c(=O)n3C [compound 134, 1-(3-Fluoro-5-methoxy-pyridin-4-yl)-7-methoxy-3-methyl-8-(3H-1,2,3-triazol-4-yl)-1,3-dihydroimidazo-[4,5-c] quinolin-2-one] | < 1 nM
CCn1cc(-n2c(=O)n(C)c3cnc4cc(OC)c(-c5cn(C)nc5C)cc4c32)c(C)n1 [compound 135, 8-(1,3-Dimethyl-1H-pyrazol-4-yl)-1-(1-ethyl-3-methyl-1H-pyrazol-4-yl)-7-methoxy-3-methyl-1,3-dihydro-imidazo[4,5-c]quinolin-2-one] | < 1 nM
COc1ccc(-c2cc3c(cc2OC)ncc2c3n(-c3c(F)cncc3OC)c(=O)n2C)cn1 [compound 137, 1-(3-Fluoro-5-methoxy-pyridin-4-yl)-7-methoxy-8-(6-methoxypyridin-3-yl)-3-methyl-1,3-dihydroimidazo-[4,5-c]quinolin-2-one] | < 10 nM
CNC(=O)c1cnc(-n2c(=O)n(C)c3cnc4cc(OC)c(-c5cn(C)nc5C)cc4c32)c(F)c1 [compound 139, 6-[8-(1,3-Dimethyl-1H-pyrazol-4-yl)-7-methoxy-3-methyl-2-oxo-2,3-dihydro-imidazo[4,5-c]quinolin-1-yl]-5-fluoro-N-methyl-nicotinamid] | < 1 nM
CCn1cc(-c2cc3c(cc2OC)ncc2c3n(-c3c(F)cncc3OC)c(=O)n2C)c(C)n1 [compound 142, 8-(1-Ethyl-3-methyl-1H-pyrazol-4-yl)-1-(3-fluoro-5-methoxypyridin-4-yl)-7-methoxy-3-methyl-1,3-dihydroimidazo[4,5-c] quinolin-2-one] | < 1 nM
COc1cc2ncc3c(c2cc1-c1cnn(C(F)F)c1)n(-c1c(F)cncc1OC)c(=O)n3C [compound 143, 8-(1-Difluoromethyl-1H-pyrazol-4-yl)-1-(3-fluoro-5-methoxypyridin-4-yl)-7-methoxy-3-methyl-1,3-dihydroimidazo[4,5-c] quinolin-2-one] | < 1 nM
COc1cnc(-n2c(=O)n(C)c3cnc4cc(OC)c(-c5ccc6nc(C)[nH]c6c5)cc4c32)c(F)c1 [compound 144, 1-(3-Fluoro-5-methoxy-pyridin-2-yl)-7-methoxy-3-methyl-8-(2-methyl-3H-benzoimidazol-5-yl)-1,3-dihydroimidazo[4,5-c]-quinolin-2-one] | < 1 nM
COc1cc2ncc3c(c2cc1-c1cnn(C)c1)n(-c1c(F)cncc1OC(F)F)c(=O)n3C [compound 146, 1-(3-Difluoromethoxy-5-fluoropyridin-4-yl)-7-methoxy-3-methyl-8-(1-methyl-1H-pyrazol-4-yl)-1,3-dihydroimidazo[4,5-c]-quinolin-2-one] | < 1 nM
COc1cc2ncc3c(c2cc1-c1cnn(C)c1)n(-c1c(F)cncc1OCF)c(=O)n3C [compound 148] | < 1 nM
COc1cc2ncc3c(c2cc1-c1n[nH]cc1C)n(-c1cn(C)nc1C)c(=O)n3C [compound 151, 1-(1,3-Dimethyl-1H-pyrazol-4-yl)-7-methoxy-3-methyl-8-(4-methyl-1H-pyrazol-3-yl)-1,3-dihydroimidazo[4,5-c] quinolin-2-one] | < 50 nM
COc1cc2ncc3c(c2cc1-c1cnc2nc(C)[nH]c2c1)n(-c1c(F)cncc1OC)c(=O)n3C [compound 152, 1-(3-Fluoro-5-methoxy-pyridin-4-yl)-7-methoxy-3-methyl-8-(2-methyl-1H-imidazo[4,5-b]pyridin-6-yl)-1,3-dihydroimidazo[4,5-c]-quinolin-2-one] | < 1 nM
COc1cnc(-n2c(=O)n(C)c3cnc4cc(OC)c(-c5ccc6nc[nH]c6c5)cc4c32)c(F)c1 [compound 153, 8-(3H-Benzimidazol-5-yl)-1-(3-fluoro-5-methoxypyridin-2-yl)-7-methoxy-3-methyl-1,3-dihydroimidazo[4,5-c]-quinolin-2-one] | < 10 nM
COc1cc2ncc3c(c2cc1-c1cnc2nc(C)[nH]c2c1)n(-c1cn(C)nc1C)c(=O)n3C [compound 154, 1-(1,3-Dimethyl-1H-pyrazol-4-yl)-7-methoxy-3-methyl-8-(2-methyl-1H-imidazo[4,5-b]pyridin-6-yl)-1,3-dihydro-imidazo[4,5-c]quinolin-2-one] | < 1 nM
CCc1cnccc1-n1c(=O)n(C)c2cnc3cc(OC)c(-c4cnn(C)c4)cc3c21 [compound 156, 1-(3-Ethylpyridin-4-yl)-7-methoxy-3-methyl-8-(1-methyl-1H-pyrazol-4-yl)-1,3-dihydroimidazo[4,5-c] quinolin-2-one] | < 1 nM
COc1cc2ncc3c(c2cc1-c1cnn(C)n1)n(-c1ncccc1F)c(=O)n3C [compound 158, 1-(3-Fluoropyridin-2-yl)-7-methoxy-3-methyl-8-(2-methyl-2H-1,2,3-triazol-4-yl)-1,3-dihydroimidazo-[4,5-c] quinolin-2-one] | < 500 nM
COc1cc2ncc3c(c2cc1-c1cnn(C)c1)n(-c1ccncc1C1CC1)c(=O)n3C [compound 200, 1-(3-Cyclopropylpyridin-4-yl)-7-methoxy-3-methyl-8-(1-methyl-1H-pyrazol-4-yl)-1,3-dihydroimidazo[4,5-c] quinolin-2-one] | < 50 nM
COc1cc2ncc3c(c2cc1-c1cnn(C)c1)n(-c1c(F)cncc1C1CC1)c(=O)n3C [compound 202, 1-(3-Cyclopropyl-5-fluoro-pyridin-4-yl)-7-methoxy-3-methyl-8-(1-methyl-1H-pyrazol-4-yl)-1,3-dihydro-imidazo[4,5-c]quinolin-2-one] | < 1 nM
COc1cc2ncc3c(c2cc1-c1cn(C)nc1C)n(-c1ncc(OCS(C)(=O)=O)cc1F)c(=O)n3C [compound 203, 8-(1,3-Dimethyl-1H-pyrazol-4-yl)-1-(3-fluoro-5-methyl-sulfonylmethoxypyridin-2-yl)-7-methoxy-3-methyl-1,3-dihydroimidazo[4,5-c]-quinolin-2-one] | < 1 nM
C=CCOc1cnc(-n2c(=O)n(C)c3cnc4cc(OC)c(-c5cnn(C)c5)cc4c32)c(F)c1 [compound 204, 1-(5-Allyloxy-3-fluoropyridin-2-yl)-7-methoxy-3-methyl-8-(1-methyl-1H-pyrazol-4-yl)-1,3-dihydroimidazo[4,5-c]-quinolin-2-one] | < 1 nM
CNCCOc1cnc(-n2c(=O)n(C)c3cnc4cc(OC)c(-c5cnn(C)c5)cc4c32)c(F)c1 [compound 206] | < 10 nM
COc1cc2ncc3c(c2cc1-c1cnn(C)c1)n(-c1ncc(OCC2CN(C)C2)cc1F)c(=O)n3C [compound 207, 1-[3-Fluoro-5-(1-methyl-azetidin-3-ylmethoxy)-pyridin-2-yl]-7-methoxy-3-methyl-8-(1-methyl-1H-pyrazol-4-yl)-1,3-dihydro-imidazo[4,5-c]quinolin-2-one] | < 10 nM
COc1cc2ncc3c(c2cc1-c1cnn(C2CNC2)c1)n(-c1c(F)cncc1OC)c(=O)n3C [compound 208, 8-[1-(Azetidin-3-yl)-1H-pyrazol-4-yl]-1-(3-fluoro-5-methoxypyridin-4-yl)-7-methoxy-3-methyl-1H,2H,3H-imidazo[4,5-c]-quinolin-2-one] | < 10 nM
